Reference: patent US20170189504A1, “NOVEL PEPTIDES AND COMBINATION OF PEPTIDES FOR USE IN IMMUNOTHERAPY AGAINST VARIOUS CANCERS” (immatics biotechnologies GmbH, priority 2015, published 2017)

Tests used:
HLA-A*02 = experiment: MHC binding assay, UV-ligand exchange with β2m ELISA, HLA-A*02 (Table 20); set-up: species or system human; details: binding to HLA-A*02 ranged by peptide exchange yield (UV-ligand exchange, β2m ELISA)
Method in brief: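 Peptide–MHC complexes made by UV-ligand exchange of a UV-cleavable peptide, diluted 100-fold and captured on streptavidin plates. Stabilized complexes detected by HRP anti-β2m ELISA (1 h, 37° C, A450). Exchange yield derived against refolded HLA-A*02:01/MLA-001 monomer standards (15-500 ng/ml).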

CD8+ T cells = experiment: In vitro immunogenicity: T-cell priming with aAPCs loaded with peptide/MHC complexes and anti-CD28 antibody, pMHC multimer readout (Tables 19A, 19B); assay type: cell-based, human; details: for Wells positive [%]: in vitro immunogenicity of HLA class I peptides, pMHC multimer readout after priming of CD8+ T cells; for Share of positive wells (percent class): in vitro immunogenicity, healthy donors, three stimulation cycles
Experimental: In an aspect, the peptides are pre-screened for immunogenicity before being included in the warehouse. By way of example, and not limitation, the immunogenicity of the peptides included in the warehouse is determined by a method comprising in vitro T-cell priming through repeated stimulations of CD8+ T cells from healthy donors with artificial antigen presenting cells loaded with peptide/MHC complexes and anti-CD28 antibody.
In order to obtain information regarding the immunogenicity of the TUMAPs of the present invention, the inventors performed investigations using an in vitro T-cell priming assay based on repeated stimulations of CD8+ T cells with artificial antigen presenting cells (aAPCs) loaded with peptide/MHC complexes and anti-CD28 antibody.
In order to perform in vitro stimulations by artificial antigen presenting cells loaded with peptide-MHC complex (pMHC) and anti-CD28 antibody, the inventors first isolated CD8+ T cells from fresh HLA-A*02 leukapheresis products via positive selection using CD8 microbeads (Miltenyi Biotec, Bergisch-Gladbach, Germany) of healthy donors obtained from the University clinics Mannheim, Germany, after informed consent.
PBMCs and isolated CD8+ lymphocytes were incubated in T-cell medium (TCM) until use consisting of RPMI-Glutamax (Invitrogen, Karlsruhe, Germany) supplemented with 10% heat inactivated human AB serum (PAN-Biotech, Aidenbach, Germany), 100 U/ml Penicillin/100 μg/ml Streptomycin (Cambrex, Cologne, Germany), 1 mM sodium pyruvate (CC Pro, Oberdorla, Germany), 20 μg/ml Gentamycin (Cambrex). 2.5 ng/ml IL7 (PromoCell, Heidelberg, Germany) and 10 U/ml IL-2 (Novartis Pharma, Nurnberg, Germany) were also added to the TCM at this step.
Generation of pMHC/anti-CD28 coated beads, T-cell stimulations and readout was performed in a highly defined in vitro system using four different pMHC molecules per stimulation condition and 8 different pMHC molecules per readout condition.
The purified co-stimulatory mouse IgG2a anti human CD28 Ab 9.3 (Jung et al., 1987) was chemically biotinylated using Sulfo-N-hydroxysuccinimidobiotin as recommended by the manufacturer (Perbio, Bonn, Germany). Beads used were 5.6 μm diameter streptavidin coated polystyrene particles (Bangs Laboratories, Illinois, USA).
pMHC used for positive and negative control stimulations were A*0201/MLA-001 (peptide […] (SEQ ID NO. 303) from modified Melan-A/MART-1) and A*0201/DDX5-001 ([…] from DDX5, SEQ ID NO. 304), respectively.
800.000 beads/200 μl were coated in 96-well plates in the presence of 4×12.5 ng different biotin-pMHC, washed and 600 ng biotin anti-CD28 were added subsequently in a volume of 200 μl. Stimulations were initiated in 96-well plates by co-incubating […] CD8+ T cells with 2×10^5 washed coated beads in 200 μl TCM supplemented with 5 ng/ml IL-12 (PromoCell) for 3 days at 37° C. Half of the medium was then exchanged by fresh TCM supplemented with 80 U/ml IL-2 and incubating was continued for 4 days at 37° C. This stimulation cycle was performed for a total of three times. For the pMHC multimer readout using 8 different pMHC molecules per condition, a two-dimensional combinatorial coding approach was used as previously described (Andersen et al., 2012) with minor modifications encompassing coupling to 5 different fluorochromes. Finally, multimeric analyses were performed by staining the cells with Live/dead near IR dye (Invitrogen, Karlsruhe, Germany), CD8-FITC antibody clone SK1 (BD, Heidelberg, Germany) and fluorescent pMHC multimers. For analysis, a BD LSRII SORP cytometer equipped with appropriate lasers and filters was used. Peptide specific cells were calculated as percentage of total CD8+ cells. Evaluation of multimeric analysis was done using the FlowJo software (Tree Star, Oreg., USA). In vitro priming of specific multimer+ CD8+ lymphocytes was detected by comparing to negative control stimulations.

HLA-A*24 = experiment: MHC binding assay, UV-ligand exchange with β2m ELISA, HLA-A*24 (Table 21); set-up: species or system human; details: binding to HLA-A*24 ranged by peptide exchange yield (UV-ligand exchange, β2m ELISA)
Description: Candidate peptides for T cell based therapies according to the present invention were further tested for their MHC binding capacity (affinity). The individual peptide-MHC complexes were produced by UV-ligand exchange, where a UV-sensitive peptide is cleaved upon UV-irradiation, and exchanged with the peptide of interest as analyzed. Only peptide candidates that can effectively bind and stabilize the peptide-receptive MHC molecules prevent dissociation of the MHC complexes. To determine the yield of the exchange reaction, an ELISA was performed based on the detection of the light chain ((β2m) of stabilized MHC complexes. The assay was performed as generally described in Rodenko et al. (Rodenko et al., 2006).
96 well MAXISorp plates (NUNC) were coated over night with 2 ug/ml streptavidin in PBS at room temperature, washed 4× and blocked for 1 h at 37° C. in 2% BSA containing blocking buffer. Refolded HLA-A*02:01/MLA-001 monomers served as standards, covering the range of 15-500 ng/ml. Peptide-MHC monomers of the UV-exchange reaction were diluted 100 fold in blocking buffer. Samples were incubated for 1 h at 37° C., washed four times, incubated with 2 ug/ml HRP conjugated anti-β2m for 1 h at 37° C., washed again and detected with TMB solution that is stopped with […]. Absorption was measured at 450 nm. Candidate peptides that show a high exchange yield (preferably higher than 50%, most preferred higher than 75%) are generally preferred for a generation and production of antibodies or fragments thereof, and/or T cell receptors or fragments thereof, as they show sufficient avidity to the MHC molecules and prevent dissociation of the MHC complexes.

Peptide exchange (HLA-A*02)	Peptide exchange (HLA-A*24)	Substance	Wells positive [%] (CD8+ T cells)	Share of positive wells (percent class) (CD8+ T cells)
++++ (≧75% = ++++)	–	1 (LLYPEPWSV; listed as Homo sapiens) [compound 1]	++ (20%-49% = ++)	–
++++ (≧75% = ++++)	–	4 (KLMPGTYTL; listed as Homo sapiens) [compound 4]	+ (<20% = +)	–
+++ (50%-75% = +++)	–	5 (GIVAHIQEV; listed as Homo sapiens) [compound 5]	+ (<20% = +)	–
+++ (50%-75% = +++)	–	6 (ALFDSLRHV; listed as Homo sapiens) [compound 6]	++ (20%-49% = ++)	–
+++ (50%-75% = +++)	–	7 (ILDHEVPSL; listed as Homo sapiens) [compound 7]	++ (20%-49% = ++)	–
+++ (50%-75% = +++)	–	11 (ALSPSYLTV; listed as Homo sapiens) [compound 11]	++ (20%-49% = ++)	–
++++ (≧75% = ++++)	–	12 (GLLPLLHRA; listed as Homo sapiens) [compound 12]	++++ (≧70% = ++++)	–
++++ (≧75% = ++++)	–	14 (ILAKDLFEI; listed as Homo sapiens) [compound 14]	++ (20%-49% = ++)	–
+++ (50%-75% = +++)	–	18 (ILLDLTDNRL; listed as Homo sapiens) [compound 18]	+ (<20% = +)	–
+++ (50%-75% = +++)	–	20 (GLSQITNQL; listed as Homo sapiens) [compound 20]	++ (20%-49% = ++)	–
+++ (50%-75% = +++)	–	23 (SLFSDEFKV; listed as Homo sapiens) [compound 23]	++++ (≧70% = ++++)	–
+++ (50%-75% = +++)	–	26 (ALQEELTEL; listed as Homo sapiens) [compound 26]	+ (<20% = +)	–
+++ (50%-75% = +++)	–	27 (RLMEENWNA; listed as Homo sapiens) [compound 27]	+++ (50%-69% = +++)	–
+++ (50%-75% = +++)	–	29 (YLLDPSITL; listed as Homo sapiens) [compound 29]	+ (<20% = +)	–
+++ (50%-75% = +++)	–	31 (TITETTVEV; listed as Homo sapiens) [compound 31]	+ (<20% = +)	–
+++ (50%-75% = +++)	–	35 (FLLPFSTVYL; listed as Homo sapiens) [compound 35]	+ (<20% = +)	–
+++ (50%-75% = +++)	–	90 (FLQDLEQRL; listed as Homo sapiens) [compound 90]	+ (<20% = +)	–
++++ (≧75% = ++++)	–	92 (GLLFSLRSV; listed as Homo sapiens) [compound 92]	++ (20%-49% = ++)	–
++ (20%-49% = ++)	–	96 (LLVSHLYLV; listed as Homo sapiens) [compound 96]	++ (20%-49% = ++)	–
+++ (50%-75% = +++)	–	138 (ALLAKILQI; listed as Homo sapiens) [compound 138]	++ (20%-49% = ++)	–
+++ (50%-75% = +++)	–	141 (FLDKVLVAA; listed as Homo sapiens) [compound 141]	+ (<20% = +)	–

Peptide exchange (HLA-A*02)	Peptide exchange (HLA-A*24)	Substance	Wells positive [%] (CD8+ T cells)	Share of positive wells (percent class) (CD8+ T cells)
–	++++ (≧75% = ++++)	278 (RYISDQLFTNF; listed as Homo sapiens) [compound 278]	–	–
–	+++ (50%-75% = +++)	279 (TYIESASEL; listed as Homo sapiens) [compound 279]	–	–
–	++++ (≧75% = ++++)	280 (RYPDNLKHLYL; listed as Homo sapiens) [compound 280]	–	–
–	++++ (≧75% = ++++)	282 (KFVDSTFYL; listed as Homo sapiens) [compound 282]	–	–
–	+++ (50%-75% = +++)	283 (TYGDAGLTYTF; listed as Homo sapiens) [compound 283]	–	–
–	+++ (50%-75% = +++)	284 (RYLNKAFHI; listed as Homo sapiens) [compound 284]	–	–
–	++ (20%-49% = ++)	286 (RYPDNLKHL; listed as Homo sapiens) [compound 286]	–	–
–	+++ (50%-75% = +++)	287 (LYITEPKTI; listed as Homo sapiens) [compound 287]	–	–
–	+++ (50%-75% = +++)	288 (VYVSDIQEL; listed as Homo sapiens) [compound 288]	–	–
–	++++ (≧75% = ++++)	289 (KYPVEWAKF; listed as Homo sapiens) [compound 289]	–	–
–	–	290 (KIVDFSYSV; listed as Homo sapiens) [compound 290]	–	++ (20%-49% = ++)
–	–	291 (KLDETGNSL; listed as Homo sapiens) [compound 291]	–	+ (<20% = +)
–	–	292 (GMMTAILGV; listed as Homo sapiens) [compound 292]	–	+ (<20% = +)
–	–	293 (FLVDGSWSI; listed as Homo sapiens) [compound 293]	–	+ (<20% = +)
–	–	295 (YYPGVILGF; listed as Homo sapiens) [compound 295]	–	++ (20%-49% = ++)
–	–	296 (TYVDSSHTI; listed as Homo sapiens) [compound 296]	–	+ (<20% = +)
–	–	297 (PFLQASPHF; listed as Homo sapiens) [compound 297]	–	++ (20%-49% = ++)
–	–	298 (RYLEGTSCI; listed as Homo sapiens) [compound 298]	–	+ (<20% = +)
–	–	300 (AYVLRLETL; listed as Homo sapiens) [compound 300]	–	+ (<20% = +)
–	–	301 (AYKPGALTF; listed as Homo sapiens) [compound 301]	–	+ (<20% = +)
